# Test results reported in patent publication US20230088214A1, “GLYCOLATE OXIDASE INHIBITORS FOR THE TREATMENT OF DISEASE” (BIOMARIN PHARMACEUTICAL INC., priority 2019, published 2023).
# pIC50: −log10 of the molar value. Where two headings read alike, the source gives them in different places.
# Target: T1, GO (Homo sapiens, UniProt Q9UJM8)
# T1 sequence (Q9UJM8 1-370): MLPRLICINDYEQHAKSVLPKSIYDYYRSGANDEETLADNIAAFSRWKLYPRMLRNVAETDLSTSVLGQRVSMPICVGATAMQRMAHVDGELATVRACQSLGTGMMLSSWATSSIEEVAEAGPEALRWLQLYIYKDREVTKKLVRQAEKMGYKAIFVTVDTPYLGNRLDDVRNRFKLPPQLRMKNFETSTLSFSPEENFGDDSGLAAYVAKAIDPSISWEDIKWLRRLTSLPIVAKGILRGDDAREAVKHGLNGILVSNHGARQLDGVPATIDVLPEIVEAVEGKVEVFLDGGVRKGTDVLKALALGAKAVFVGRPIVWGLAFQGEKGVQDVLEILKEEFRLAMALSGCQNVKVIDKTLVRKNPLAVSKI
# Assay: GO Enzymatic Assay (Assay 1)
# Type: biochemical
# Parameters: purchased Novus Biologicals NBP1-72412
# Experimental: Assay 1: GO Enzymatic Assay
# GO was incubated with its substrate, glycolate, in 50 mM potassium phosphate buffer, pH 7. […] The enzyme was optimized and the kinetics was determined.
# Compound inhibition was determined by adding various concentrations of inhibitors in the GO enzyme assay. The IC50 value for each measured compound was generated from sigmoidal dose-response (variable slope) curves with GraphPad Prism software (GraphPad Software, Inc., San Diego, Calif.) using the percent inhibition of GO activity relative to DMSO control.
# [1] = human GO, glycolate substrate, pH 7, percent inhibition relative to DMSO control, read-out: Range of IC50 values calculated from the enzymatic assays (Assay 1)
# [2] = Table 4, class symbols without asterisk, GO Enzymatic Assay (Assay 1), read-out: Range
Compound,pIC50 [1],pIC50 [2]
"C[N+](C)(C)CCOC(=O)c1[nH]nnc1Sc1ccc(-c2ccc(OC(F)(F)F)cc2)cc1 [Compound 38, N,N,N-trimethyl-2-((4-((4′-(trifluoromethoxy)-[1,1′-biphenyl]-4-yl)thio)-1H-1,2,3-triazole-5-carbonyl)oxy)ethan-1-aminium iodide]",5.00 to 6.00,–
"O=C(O)c1[nH]nnc1O[C@H]1CC[C@H](c2ccc(OC(F)(F)F)cc2)CC1 [Compound 272-1, 4-(((trans)-4-(4-(trifluoromethoxy)phenyl)cyclohexyl)oxy)-1H-1,2,3-triazole-5-carboxylic acid]",> 7.00,–
"O=C(O)c1[nH]nnc1O[C@H]1CC[C@@H](c2ccc(OC(F)(F)F)cc2)CC1 [Compound 272-2, 4-(((cis)-4-(4-(trifluoromethoxy)phenyl)cyclohexyl)oxy)-1H-1,2,3-triazole-5-carboxylic acid]",> 7.00,–
"O=C(O)c1[nH]nnc1Sc1ccc(-c2ccc(N3CCCCC3)c(Cl)c2)cc1 [Compound 376, 4-((3′-chloro-4′-(piperidin-1-yl)-[1,1′-biphenyl]-4-yl)thio)-1H-1,2,3-triazole-5-carboxylic acid 2,2,2-trifluoroacetate]",–,> 7.00
"O=C(O)c1[nH]nnc1CS[C@H]1CC[C@@H](c2cc(Cl)cc(Cl)c2)CC1 [Compound 377, 4-((((cis)-4-(3,5-dichlorophenyl)cyclohexyl)thio)methyl)-1H-1,2,3-triazole-5-carboxylic acid]",–,> 7.00
"O=C(O)c1[nH]nnc1O[C@H]1CC[C@@H](c2ccc(N3CCCCC3=O)cc2)CC1 [Compound 379, 4-(((cis)-4-(4-(2-oxopiperidin-1-yl)phenyl)cyclohexyl)oxy)-1H-1,2,3-triazole-5-carboxylic acid]",–,> 7.00
"O=C(O)c1[nH]nnc1Oc1cccc(OC2CCCCC2)c1 [Compound 380, 4-(3-(cyclohexyloxy)phenoxy)-1H-1,2,3-triazole-5-carboxylic acid 2,2,2-trifluoroacetate]",–,> 7.00
"O=C(O)c1[nH]nnc1Oc1ccc(Cl)c(OC2CCCC2)c1 [Compound 381, 4-(4-chloro-3-(cyclopentyloxy)phenoxy)-1H-1,2,3-triazole-5-carboxylic acid 2,2,2-trifluoroacetate]",–,> 7.00
"O=C(O)c1[nH]nnc1Sc1cccc(OC2CCCCC2)c1 [Compound 382, 4-((3-(cyclohexyloxy)phenyl)thio)-1H-1,2,3-triazole-5-carboxylic acid 2,2,2-trifluoroacetate]",–,6.00 to 7.00
"O=C(O)c1[nH]nnc1CSC1CCN(c2cc(Cl)ccc2Cl)CC1 [Compound 383, 4-(((1-(2,5-dichlorophenyl)piperidin-4-yl)thio)methyl)-1H-1,2,3-triazole-5-carboxylic acid 2,2,2-trifluoroacetate]",–,> 7.00
"O=C(O)c1[nH]nnc1CSC1CCN(c2ccc(Cl)c(Cl)c2)CC1 [Compound 384, 4-(((1-(3,4-dichlorophenyl)piperidin-4-yl)thio)methyl)-1H-1,2,3-triazole-5-carboxylic acid 2,2,2-trifluoroacetate]",–,> 7.00
"O=C(O)c1[nH]nnc1SC1CCN(c2cc(Cl)ccc2OC(F)(F)F)CC1 [Compound 386, 4-((1-(5-chloro-2-(trifluoromethoxy)phenyl)piperidin-4-yl)thio)-1H-1,2,3-triazole-5-carboxylic acid 2,2,2-trifluoroacetate]",–,> 7.00
"O=C(O)c1[nH]nnc1Oc1ccc(-c2ccc(Cl)cc2)c(OCC2CCCC2)c1 [Compound 387, 4-((4′-chloro-2-(cyclopentylmethoxy)-[1,1′-biphenyl]-4-yl)oxy)-1H-1,2,3-triazole-5-carboxylic acid 2,2,2-trifluoroacetate]",–,> 7.00
"O=C(O)c1[nH]nnc1Oc1ccc(C2CCN(C3CCCCC3)CC2)cc1 [Compound 388, 4-(4-(1-cyclohexylpiperidin-4-yl)phenoxy)-1H-1,2,3-triazole-5-carboxylic acid 2,2,2-trifluoroacetate]",–,5.00 to 6.00
"N#Cc1ccc(Oc2nn[nH]c2C(=O)O)cc1OCc1ccc(F)cc1 [Compound 390, 4-(4-cyano-3-((4-fluorobenzyl)oxy)phenoxy)-1H-1,2,3-triazole-5-carboxylic acid]",–,> 7.00
"N#Cc1ccc(-c2ccc(Oc3nn[nH]c3C(=O)O)cc2Cl)cc1 [Compound 394, 4-((2-chloro-4′-cyano-[1,1′-biphenyl]-4-yl)oxy)-1H-1,2,3-triazole-5-carboxylic acid]",–,> 7.00
"O=C(O)c1[nH]nnc1O[C@H]1CC[C@H](c2cc(OC(F)(F)F)ccc2Cl)CC1 [Compound 395, 4-(((trans)-4-(2-chloro-5-(trifluoromethoxy)phenyl)cyclohexyl)oxy)-1H-1,2,3-triazole-5-carboxylic acid]",–,> 7.00

Compound,pIC50 [1],pIC50 [2]
"O=C(O)c1[nH]nnc1O[C@H]1CC[C@@H](c2cc(OC(F)(F)F)ccc2Cl)CC1 [Compound 396, 4-(((cis)-4-(2-chloro-5-(trifluoromethoxy)phenyl)cyclohexyl)oxy)-1H-1,2,3-triazole-5-carboxylic acid]",–,> 7.00
"NC(=O)c1ccc(-c2ccc(Oc3nn[nH]c3C(=O)O)cc2)cc1 [Compound 397, 4-((4′-carbamoyl-[1,1′-biphenyl]-4-yl)oxy)-1H-1,2,3-triazole-5-carboxylic acid]",–,> 7.00
"O=C(O)c1[nH]nnc1Sc1ccc(-c2ccc(Cl)cc2)c(OCC2CCCC2)c1 [Compound 398, 4-((4′-chloro-2-(cyclopentylmethoxy)-[1,1′-biphenyl]-4-yl)thio)-1H-1,2,3-triazole-5-carboxylic acid 2,2,2-trifluoroacetate]",–,> 7.00
"O=C(O)c1[nH]nnc1Oc1ccc(Cl)c(OC2CCCCC2)c1 [Compound 399, 4-(4-chloro-3-(cyclohexyloxy)phenoxy)-1H-1,2,3-triazole-5-carboxylic acid 2,2,2-trifluoroacetate]",–,> 7.00
"O=C(O)c1[nH]nnc1O[C@H]1CC[C@H](c2ccc(-n3cnnc3)cc2)CC1 [Compound 403, 4-(((trans)-4-(4-(4H-1,2,4-triazol-4-yl)phenyl)cyclohexyl)oxy)-1H-1,2,3-triazole-5-carboxylic acid]",–,> 7.00
"N#Cc1ccc([C@H]2C[C@H](Oc3nn[nH]c3C(=O)O)C2)cc1 [Compound 404, 4-((trans)-3-(4-cyanophenyl)cyclobutoxy)-1H-1,2,3-triazole-5-carboxylic acid 2,2,2-trifluoroacetate]",–,> 7.00
"O=C(O)c1[nH]nnc1O[C@H]1CC[C@H](c2ccc(-n3cncn3)cc2)CC1 [Compound 405, 4-(((trans)-4-(4-(1H-1,2,4-triazol-1-yl)phenyl)cyclohexyl)oxy)-1H-1,2,3-triazole-5-carboxylic acid]",–,> 7.00
"O=C(O)c1[nH]nnc1O[C@H]1CC[C@H](c2ccc3ncccc3c2)CC1 [Compound 409, 4-(((trans)-4-(quinolin-6-yl)cyclohexyl)oxy)-1H-1,2,3-triazole-5-carboxylic acid 2,2,2-trifluoroacetate]",–,> 7.00
"O=C(O)c1[nH]nnc1S[C@H]1CC[C@H](c2ccc3ncccc3c2)CC1 [Compound 410, 4-(((trans)-4-(quinolin-6-yl)cyclohexyl)thio)-1H-1,2,3-triazole-5-carboxylic acid 2,2,2-trifluoroacetate]",–,> 7.00
"O=C(O)c1[nH]nnc1S[C@H]1CC[C@H](c2cc(OC(F)(F)F)ccc2Cl)CC1 [Compound 411, 4-(((trans)-4-(2-chloro-5-(trifluoromethoxy)phenyl)cyclohexyl)thio)-1H-1,2,3-triazole-5-carboxylic acid]",–,> 7.00
"O=C(O)c1[nH]nnc1O[C@H]1CC[C@H](c2ccc(N3CCCC3=O)cc2)CC1 [Compound 412, 4-(((trans)-4-(4-(2-oxopyrrolidin-1-yl)phenyl)cyclohexyl)oxy)-1H-1,2,3-triazole-5-carboxylic acid]",–,> 7.00
"CN(C)C(=O)c1ccc([C@H]2CC[C@H](Oc3nn[nH]c3C(=O)O)CC2)cc1 [Compound 414, 4-(((trans)-4-(4-(dimethylcarbamoyl)phenyl)cyclohexyl)oxy)-1H-1,2,3-triazole-5-carboxylic acid 2,2,2-trifluoroacetate]",–,> 7.00
"O=C(O)c1[nH]nnc1O[C@H]1CC[C@H](c2ccc(C(=O)N3CCOCC3)cc2)CC1 [Compound 416, 4-(((trans)-4-(4-(morpholine-4-carbonyl)phenyl)cyclohexyl)oxy)-1H-1,2,3-triazole-5-carboxylic acid 2,2,2-trifluoroacetate]",–,> 7.00
"O=C(O)c1[nH]nnc1O[C@H]1CC[C@H](c2ccc(C(=O)N3CCCCC3)cc2)CC1 [Compound 417, 4-(((trans)-4-(4-(piperidine-1-carbonyl)phenyl)cyclohexyl)oxy)-1H-1,2,3-triazole-5-carboxylic acid 2,2,2-trifluoroacetate]",–,> 7.00
"O=C(O)c1[nH]nnc1O[C@H]1CC[C@H](c2ccc(-n3cccn3)cc2)CC1 [Compound 418, 4-(((trans)-4-(4-(1H-pyrazol-1-yl)phenyl)cyclohexyl)oxy)-1H-1,2,3-triazole-5-carboxylic acid]",–,> 7.00
"O=C(O)c1[nH]nnc1O[C@H]1CC[C@H](c2ccc(OC(F)(F)F)c(Cl)c2)CC1 [Compound 419, 4-(((trans)-4-(3-chloro-4-(trifluoromethoxy)phenyl)cyclohexyl)oxy)-1H-1,2,3-triazole-5-carboxylic acid]",–,> 7.00
